Data from paper PMC7529893, “Structural basis for substrate recognition and chemical inhibition of oncogenic MAGE ubiquitin ligases” (Nature Communications, 2020).

Biological target: T1, MAGE-A11:PCF11 interaction (GST-MAGE-A11 and FAM-PCF11_4) (Homo sapiens, UniProt P43364)
T1 construct: GST-MAGE-A11 MHD (human MAGE-A11 MHD amino acid 218-429); made in house; host or cells: E. coli BL21(DE3)
T1 sequence (P43364 218-429): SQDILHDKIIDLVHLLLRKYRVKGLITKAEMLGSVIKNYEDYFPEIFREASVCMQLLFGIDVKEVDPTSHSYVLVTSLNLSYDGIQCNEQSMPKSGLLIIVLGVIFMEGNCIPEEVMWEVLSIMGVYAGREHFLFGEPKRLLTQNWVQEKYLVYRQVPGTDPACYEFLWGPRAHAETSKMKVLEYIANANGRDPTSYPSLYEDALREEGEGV
Experiment: TR-FRET primary / single point screen at 15 µM
Type: binding
Procedure, shortened: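 Single-point screen at 15 µM final compound in 50 mM Tris pH 7.5, 20 mM MgCl2, 0.1 mg/ml BSA, 1 mM DTT, with 200 nM FAM-PCF11_4, 5 nM Tb-anti-GST and 5 nM GST-MAGE-A11. After 90 min at room temperature, the 520/490 nm TR-FRET ratio (340 nm excitation) gave %Inhibition against no-MAGE-A11 and DMSO controls.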

[1] = single point TR-FRET screening of quinoline compounds against MAGE-A11:PCF11, 15 µM
[2] = single point TR-FRET screening of 797 quinoline compounds against MAGE-A11:PCF11

| SMILES | percent inhibition (TR-FRET) [1] | percent inhibition (TR-FRET) [2] |
| --- | --- | --- |
| CCCN(CCCNc1c2ccc(Cl)cc2nc2ccc(OC)cc12)Cc1c(C)cc(C)cc1C [SJ000520934] | -46.315 | – |
| CCCN(CCCNc1c2ccc(Cl)cc2nc2ccc(OC)cc12)Cc1ccco1 [SJ000520935] | – | -202.643 |
| CCCN(CCCNc1c2ccc(Cl)cc2nc2ccc(OC)cc12)CC1CC1 [SJ000520936] | – | -271.356 |
| CCCN(CCCNc1c2ccc(Cl)cc2nc2ccc(OC)cc12)Cc1ccoc1 [SJ000520937] | – | -394.576 |
| CCCN(CCCNc1c2ccc(Cl)cc2nc2ccc(OC)cc12)CC1CCCCC1 [SJ000520938] | – | -163.904 |
| CCCN(CCCNc1c2ccc(Cl)cc2nc2ccc(OC)cc12)CC(CC)CC [SJ000520939] | – | -160.284 |
| CCCN(CCCNc1c2ccc(Cl)cc2nc2ccc(OC)cc12)Cc1ccc2c(c1)OCO2 [SJ000520940] | – | -193.541 |
| CCCCCN(CCC)CCCNc1c2ccc(Cl)cc2nc2ccc(OC)cc12 [SJ000520941] | – | -210.345 |
| CCCN(CCCNc1c2ccc(Cl)cc2nc2ccc(OC)cc12)Cc1ccc(F)c(F)c1 [SJ000520942] | 0.9703 | – |
| CCCN(CCCNc1c2ccc(Cl)cc2nc2ccc(OC)cc12)Cc1ccc(OC)cc1 [SJ000520943] | – | -241.432 |
| CCCN(CCCNc1c2ccc(Cl)cc2nc2ccc(OC)cc12)Cc1ccccc1F [SJ000520944] | – | -118.554 |
| CCCN(CCCNc1c2ccc(Cl)cc2nc2ccc(OC)cc12)Cc1cccc(F)c1 [SJ000520945] | -90.1278 | – |
| CCCN(CCCNc1c2ccc(Cl)cc2nc2ccc(OC)cc12)Cc1ccc(F)cc1 [SJ000520946] | – | -141.659 |
| CCCN(CCCNc1c2ccc(Cl)cc2nc2ccc(OC)cc12)Cc1ccccc1[N+](=O)[O-] [SJ000520947] | – | -228.339 |
| CCCN(CCCNc1c2ccc(Cl)cc2nc2ccc(OC)cc12)Cc1cccc([N+](=O)[O-])c1 [SJ000520948] | -10.7413 | – |
| CCCN(CCCNc1c2ccc(Cl)cc2nc2ccc(OC)cc12)Cc1ccc([N+](=O)[O-])cc1 [SJ000520949] | -9.039 | – |
| CCCN(CCCNc1c2ccc(Cl)cc2nc2ccc(OC)cc12)Cc1ccccc1OC [SJ000520950] | – | -271.121 |
| CCCN(CCCNc1c2ccc(Cl)cc2nc2ccc(OC)cc12)Cc1ccccc1C(=O)O [SJ000520951] | – | -258.592 |
| CCCN(CCCNc1c2ccc(Cl)cc2nc2ccc(OC)cc12)Cc1cccc2ccccc12 [SJ000520952] | -40.7667 | – |
| CCCN(CCCNc1c2ccc(Cl)cc2nc2ccc(OC)cc12)Cc1ccc2ccccc2c1 [SJ000520953] | – | -129.124 |
| CCCN(CCCNc1c2ccc(Cl)cc2nc2ccc(OC)cc12)Cc1cccc(C)c1 [SJ000520954] | – | -157.809 |
| CCCN(CCCNc1c2ccc(Cl)cc2nc2ccc(OC)cc12)Cc1ccc(N(C)C)cc1 [SJ000520955] | -10.0604 | – |
| CCCN(CCCNc1c2ccc(Cl)cc2nc2ccc(OC)cc12)Cc1ccc(Cl)cc1Cl [SJ000520956] | 9.598 | – |
| CCCN(CCCNc1c2ccc(Cl)cc2nc2ccc(OC)cc12)Cc1ccc(OC)c(OC)c1 [SJ000520957] | – | -175.453 |

| SMILES | percent inhibition (TR-FRET) [1] | percent inhibition (TR-FRET) [2] |
| --- | --- | --- |
| CCCN(CCCNc1c2ccc(Cl)cc2nc2ccc(OC)cc12)CCCc1ccccc1 [SJ000520958] | – | -267.24 |
| CCCN(CCCNc1c2ccc(Cl)cc2nc2ccc(OC)cc12)CC(C)CC (centres unmarked) [SJ000520959] | – | -264.817 |
| CCCN(CCCNc1c2ccc(Cl)cc2nc2ccc(OC)cc12)Cc1cc(C)ccc1C [SJ000520960] | – | -119.324 |
| CCCN(CCCNc1c2ccc(Cl)cc2nc2ccc(OC)cc12)Cc1cccc(OC)c1 [SJ000520961] | – | -244.583 |
| CCCN(CCCNc1c2ccc(Cl)cc2nc2ccc(OC)cc12)CCc1ccccc1 [SJ000520962] | – | -591.727 |
| CCCCCCN(CCC)CCCNc1c2ccc(Cl)cc2nc2ccc(OC)cc12 [SJ000520963] | – | -153.702 |
| COc1ccc2nc3cc(Cl)ccc3c(NCCCNCc3cccn3C)c2c1 [SJ000520985] | – | -402.468 |
| COc1ccc2nc3cc(Cl)ccc3c(NCCCNCc3cccnc3)c2c1 [SJ000520986] | – | -408.98 |
| COc1ccc2nc3cc(Cl)ccc3c(NCCCNCc3cn(C)c4ccccc34)c2c1 [SJ000520987] | – | -252.354 |
| COc1ccc2nc3cc(Cl)ccc3c(NCCCNCc3cccc(OC(F)(F)F)c3)c2c1 [SJ000520988] | -73.5426 | – |
| COc1ccc2nc3cc(Cl)ccc3c(NCCCNCc3nccs3)c2c1 [SJ000520989] | – | -355.207 |
| COc1ccc2nc3cc(Cl)ccc3c(NCCCNCc3cccc(C(F)(F)F)c3)c2c1 [SJ000520990] | – | -408.139 |
| COc1ccc2nc3cc(Cl)ccc3c(NCCCNCc3cccc4c3OCO4)c2c1 [SJ000520991] | – | -257.115 |
| COc1ccc2nc3cc(Cl)ccc3c(NCCCNCc3ccc(OC(F)(F)F)cc3)c2c1 [SJ000520992] | – | -200.963 |
| COc1ccc2nc3cc(Cl)ccc3c(NCCCNCc3cc(F)ccc3OC)c2c1 [SJ000520993] | – | -365.36 |
| COc1ccc2nc3cc(Cl)ccc3c(NCCCNCCC(C)(C)C)c2c1 [SJ000520994] | – | -456.31 |
| CCCCNCCCNc1c2ccc(Cl)cc2nc2ccc(OC)cc12 [SJ000520995] | – | -405.549 |
| COc1ccc2nc3cc(Cl)ccc3c(NCCCNCc3cc(Br)cs3)c2c1 [SJ000520996] | – | -287.642 |
| COc1ccc2nc3cc(Cl)ccc3c(NCCCNCc3cc4ccccc4o3)c2c1 [SJ000520997] | – | -146.701 |
| COc1ccc(F)c(CNCCCNc2c3ccc(Cl)cc3nc3ccc(OC)cc23)c1 [SJ000520998] | – | -354.997 |
| COc1ccc2nc3cc(Cl)ccc3c(NCCCNCc3c(F)cccc3C(F)(F)F)c2c1 [SJ000520999] | – | -116.734 |
| COc1ccc2nc3cc(Cl)ccc3c(NCCCNCc3cc4ccccc4s3)c2c1 [SJ000521000] | – | -220.357 |
| COc1ccc2nc3cc(Cl)ccc3c(NCCCNCc3cc(OC(F)(F)F)ccc3OC)c2c1 [SJ000521001] | – | -231.84 |
| COc1ccc2nc3cc(Cl)ccc3c(NCCCNCc3cc(C(F)(F)F)ccc3OC)c2c1 [SJ000521002] | – | -290.163 |

| SMILES | percent inhibition (TR-FRET) [1] | percent inhibition (TR-FRET) [2] |
| --- | --- | --- |
| COc1ccc2nc3cc(Cl)ccc3c(NCCCNCC3CCOC3)c2c1 (centres unmarked) [SJ000521003] | – | -442.307 |
| COc1ccc2nc3cc(Cl)ccc3c(NCCCNCc3cccc(F)c3)c2c1 [SJ000521004] | – | -366.222 |
| CCc1ccc(CNCCCNc2c3ccc(Cl)cc3nc3ccc(OC)cc23)cc1 [SJ000521005] | – | -390.355 |
| COc1ccc2nc3cc(Cl)ccc3c(NCCCNCc3nccn3C)c2c1 [SJ000521006] | – | -279.905 |
| CCCN(CCCNc1ccnc2cc(C(F)(F)F)ccc12)Cc1cncc(Br)c1 [SJ000521007] | 4.323 | – |
| CCCN(CCCNc1ccnc2cc(C(F)(F)F)ccc12)Cc1cccc(F)c1 [SJ000521008] | 27.8488 | – |
| CCCN(CCCNc1ccnc2cc(C(F)(F)F)ccc12)Cc1ccc(CC)cc1 [SJ000521009] | 31.7696 | – |
| CCCN(CCCNc1ccnc2cc(C(F)(F)F)ccc12)Cc1nc(C)cs1 [SJ000521010] | 0.8927 | – |
| CCCN(CCCNc1ccnc2cc(C(F)(F)F)ccc12)CCOCc1ccccc1 [SJ000521011] | 25.8235 | – |
| CCCN(CCCNc1ccnc2cc(C(F)(F)F)ccc12)Cc1cc(F)cc(F)c1O [SJ000521012] | 14.997 | – |
| CCCN(CCCNc1ccnc2cc(C(F)(F)F)ccc12)Cc1ccc(OC)c(F)c1 [SJ000521013] | 21.7574 | – |
| CCCN(CCCNc1ccnc2cc(C(F)(F)F)ccc12)Cc1cc(F)ccc1C [SJ000521014] | 20.6371 | – |
| CCCN(CCCNc1ccnc2cc(C(F)(F)F)ccc12)Cc1ccc(Cl)c(C(F)(F)F)c1 [SJ000521015] | 11.045 | – |
| Cn1cccc1CNCCCNc1ccnc2cc(Cl)ccc12 [SJ000521019] | 18.9568 | – |
| Cn1cc(CNCCCNc2ccnc3cc(Cl)ccc23)c2ccccc21 [SJ000521020] | 18.4667 | – |
| COC(=O)CCCCCNCCCNc1ccnc2cc(Cl)ccc12 [SJ000521021] | 39.1213 | – |
| Clc1ccc2c(NCCCNCc3nccs3)ccnc2c1 [SJ000521023] | 4.988 | – |
| CC(C)(C)CCNCCCNc1ccnc2cc(Cl)ccc12 [SJ000521026] | 9.225 | – |
| CCCCNCCCNc1ccnc2cc(Cl)ccc12 [SJ000521027] | 8.4544 | – |
| Clc1ccc2c(NCCCNCc3cc(Br)cs3)ccnc2c1 [SJ000521028] | 22.1075 | – |
| Clc1ccc2c(NCCCNCc3cc4ccccc4o3)ccnc2c1 [SJ000521029] | 17.9065 | – |
| Clc1ccc2c(NCCCNCc3cc4ccccc4s3)ccnc2c1 [SJ000521032] | 30.1342 | – |
| Clc1ccc2c(NCCCNCc3csc4ccccc34)ccnc2c1 [SJ000521033] | 33.3803 | – |
